Assay results reported in ChEMBL document CHEMBL1240303, “Inhibiting transcription of chromosomal DNA with antigene peptide nucleic acids” (2005).
Activity calls are given as the source filed them. The rule behind the calls is not given here.

Experiments:
T47D [1] = test: Induction of morphology changes in human T47D cells expressing human progesterone receptor assessed as increase in cell height by confocal microscopy; format: functional, cell-based
T47D [2] = test: Inhibition of human progesterone receptor A gene expression transfected in human T47D cells at 200 nM by RT-PCR; format: functional, cell-based
T47D [3] = test: Inhibition of human progesterone receptor B gene expression transfected in human T47D cells at 200 nM by RT-PCR; format: functional, cell-based
T47D [4] = test: Increase in Ezrin mRNA expression in human T47D cells expressing human progesterone receptor by RT-PCR relative to untreated control; format: functional
T47D [5] = test: Inhibition of human progesterone receptor B protein expression transfected in human T47D cells at 200 nM by Western blot; format: functional
T47D [6] = test: Inhibition of human progesterone receptor A protein expression transfected in human T47D cells at 200 nM by Western blot; format: functional
T47D [7] = test: Reduction in cell proliferation of human T47D cells expressing human progesterone receptor by FACS method; format: functional, cell-based
T47D [8] = test: Inhibition of human progesterone receptor A protein expression transfected in human T47D cells at 200 nM in presence of 10 nM of estradiol by Western blot; format: functional, cell-based
T47D [9] = test: Inhibition of human progesterone receptor B protein expression transfected in human T47D cells at 200 nM in presence of 10 nM of estradiol by Western blot; format: functional, cell-based

Row | Structure (SMILES) | Activity (T47D [1]) | inhibition (T47D [2]) | inhibition (T47D [3]) | fold change (FC) (T47D [4]) | inhibition at 0.2 µM (T47D [5]) | inhibition at 0.2 µM (T47D [6]) | Activity (T47D [7]) | inhibition (T47D [8]) | inhibition (T47D [9]) | Activity (T47D [4]) | inhibition (T47D [5]) | inhibition (T47D [6])
1 | Cc1cn(CC(=O)N(CCNC(=O)CN(CCNC(=O)CN(CCNC(=O)CN(CCNC(=O)CN(CCNC(=O)CN(CCNC(=O)CNC(=O)[C@@H](N)CCCCN)C(=O)Cn2cc(C)c(=O)[nH]c2=O)C(=O)Cn2cnc3c(=O)[nH]c(N)nc32)C(=O)Cn2cnc3c(N)ncnc32)C(=O)Cn2cnc3c(=O)[nH]c(N)nc32)C(=O)Cn2ccc(N)nc2=O)CC(=O)NCCN(CC(=O)NCCN(CC(=O)NCCN(CC(=O)NCCN(CC(=O)NCCN(CC(=O)NCCN(CC(=O)NCCN(CC(=O)NCCN(CC(=O)NCCN(CC(=O)NCCN(CC(=O)NCCN(CC(=O)NCCN(CC(=O)NCCN(CC(=O)NC(CCCCN)C(=O)O)C(=O)Cn2cc(C)c(=O)[nH]c2=O)C(=O)Cn2cnc3c(=O)[nH]c(N)nc32)C(=O)Cn2cnc3c(=O)[nH]c(N)nc32)C(=O)Cn2cnc3c(=O)[nH]c(N)nc32)C(=O)Cn2cnc3c(N)ncnc32)C(=O)Cn2cnc3c(N)ncnc32)C(=O)Cn2cnc3c(N)ncnc32)C(=O)Cn2ccc(N)nc2=O)C(=O)Cn2cnc3c(=O)[nH]c(N)nc32)C(=O)Cn2cnc3c(=O)[nH]c(N)nc32)C(=O)Cn2cnc3c(N)ncnc32)C(=O)Cn2cnc3c(N)ncnc32)C(=O)Cn2cnc3c(=O)[nH]c(N)nc32)c(=O)[nH]c1=O (stereo partly specified) | Active | inactive | inactive | 8 | 75% | 75% | Active | Active | Active |  |  | 
2 | Cc1cn(CC(=O)N(CCNC(=O)CNC(=O)[C@@H](N)CCCCN)CC(=O)NCCN(CC(=O)NCCN(CC(=O)NCCN(CC(=O)NCCN(CC(=O)NCCN(CC(=O)NCCN(CC(=O)NCCN(CC(=O)NCCN(CC(=O)NCCN(CC(=O)NCCN(CC(=O)NCCN(CC(=O)NCCN(CC(=O)NCCN(CC(=O)NCCN(CC(=O)NCCN(CC(=O)NCCN(CC(=O)NCCN(CC(=O)NCCN(CC(=O)N[C@@H](CCCCN)C(=O)O)C(=O)Cn2ccc(N)nc2=O)C(=O)Cn2cnc3c(=O)[nH]c(N)nc32)C(=O)Cn2cnc3c(=O)[nH]c(N)nc32)C(=O)Cn2cc(C)c(=O)[nH]c2=O)C(=O)Cn2cnc3c(N)ncnc32)C(=O)Cn2cnc3c(=O)[nH]c(N)nc32)C(=O)Cn2cc(C)c(=O)[nH]c2=O)C(=O)Cn2cc(C)c(=O)[nH]c2=O)C(=O)Cn2cnc3c(=O)[nH]c(N)nc32)C(=O)Cn2cnc3c(N)ncnc32)C(=O)Cn2cnc3c(=O)[nH]c(N)nc32)C(=O)Cn2ccc(N)nc2=O)C(=O)Cn2ccc(N)nc2=O)C(=O)Cn2cnc3c(N)ncnc32)C(=O)Cn2cnc3c(=O)[nH]c(N)nc32)C(=O)Cn2ccc(N)nc2=O)C(=O)Cn2cnc3c(N)ncnc32)C(=O)Cn2ccc(N)nc2=O)c(=O)[nH]c1=O | inactive | inactive | inactive |  |  |  | inactive |  |  | inactive | inactive | inactive
3 | Cc1cn([C@@H]2O[C@H](COP(=O)(O)O[C@H]3[C@@H](O)[C@H](n4cnc5c(=O)[nH]c(N)nc54)O[C@@H]3COP(=O)(O)O[C@H]3[C@@H](O)[C@H](n4ccc(=O)[nH]c4=O)O[C@@H]3COP(=O)(O)O[C@H]3C[C@H](n4cnc5c(N)ncnc54)O[C@@H]3COP(=O)(O)O[C@H]3[C@@H](O)[C@H](N4CC=C(N)NC4=O)O[C@@H]3COP(=O)(O)O[C@H]3[C@@H](O)[C@H](n4ccc(=O)[nH]c4=O)O[C@@H]3COP(=O)(O)O[C@H]3[C@@H](O)[C@H](N4CC=C(N)NC4=O)O[C@@H]3COP(=O)(O)O[C@H]3C[C@H](n4cnc5c(=O)[nH]c(N)nc54)O[C@@H]3COP(=O)(O)O[C@H]3[C@@H](O)[C@H](n4ccc(N)nc4=O)O[C@@H]3COP(=O)(O)O[C@H]3[C@@H](O)[C@H](n4ccc(N)nc4=O)O[C@@H]3COP(=O)(O)O[C@H]3[C@@H](O)[C@H](n4ccc(N)nc4=O)O[C@@H]3COP(=O)(O)O[C@H]3[C@@H](O)[C@H](n4ccc(N)nc4=O)O[C@@H]3COP(=O)(O)O[C@H]3[C@@H](O)[C@H](n4ccc(=O)[nH]c4=O)O[C@@H]3COP(=O)(O)O[C@H]3[C@@H](O)[C@H](n4cnc5c(=O)[nH]c(N)nc54)O[C@@H]3COP(=O)(O)O[C@H]3[C@@H](O)[C@H](n4ccc(=O)[nH]c4=O)O[C@@H]3COP(=O)(O)O[C@H]3C[C@H](n4ccc(=O)[nH]c4=O)O[C@@H]3COP(=O)(O)O[C@H]3[C@@H](O)[C@H](n4cnc5c(=O)[nH]c(N)nc54)O[C@@H]3COP(=O)(O)O[C@H]3[C@@H](O)[C@H](n4ccc(=O)[nH]c4=O)O[C@@H]3COP(=O)(O)O[C@H]3[C@@H](O)[C@H](n4cnc5c(=O)[nH]c(N)nc54)O[C@@H]3COP(=O)(O)O[C@H]3[C@@H](O)[C@H](n4cnc5c(=O)[nH]c(N)nc54)O[C@@H]3CO)[C@@H](OP(=O)(O)OC[C@H]3O[C@@H](n4cc(C)c(=O)[nH]c4=O)C[C@@H]3O)[C@H]2O)c(=O)[nH]c1=O | Active |  |  | 5.5 |  |  | Active |  |  |  |  | 
4 | Cc1cn(CC(=O)N(CCNC(=O)CN(CCNC(=O)CN(CCNC(=O)CN(CCNC(=O)CN(CCNC(=O)CN(CCNC(=O)CN(CCNC(=O)CNC(=O)[C@@H](N)CCCCN)C(=O)Cn2c(N)ccnc2=O)C(=O)Cn2cnc3c(N)ncnc32)C(=O)Cn2c(N)ccnc2=O)C(=O)Cn2cnc3nc(N)[nH]c(=O)c32)C(=O)Cn2cnc3c(N)ncnc32)C(=O)Cn2cc(C)c(=O)[nH]c2=O)CC(=O)NCCN(CC(=O)NCCN(CC(=O)NCCN(CC(=O)NCCN(CC(=O)NCCN(C(=O)CNCCN(CC(=O)NCCN(CC(=O)NCCN(CC(=O)NCCN(CC(=O)NCCN(CC(=O)NCCN(CC(=O)NCCN(CC(=O)N[C@@H](CCCCN)C(=O)O)C(=O)Cn2cc(C)c(=O)[nH]c2=O)C(=O)Cn2cc(C)c(=O)[nH]c2=O)C(=O)Cn2cc(C)c(=O)[nH]c2=O)C(=O)Cn2cnc3nc(N)[nH]c(=O)c32)C(=O)Cn2cc(C)c(=O)[nH]c2=O)C(=O)Cn2cnc3c(N)ncnc32)C(=O)Cn2c(N)ccnc2=O)C(=O)Cn2cnc3nc(N)[nH]c(=O)c32)C(=O)Cn2cc(C)c(=O)[nH]c2=O)C(=O)Cn2c(N)ccnc2=O)C(=O)Cn2cc(C)c(=O)[nH]c2=O)C(=O)Cn2cc(C)c(=O)[nH]c2=O)c(=O)[nH]c1=O | inactive |  |  |  |  |  | inactive |  |  |  | inactive | inactive
5 | Cc1cn(CC(=O)N(CCNC(=O)CN(CCNC(=O)CN(CCNC(=O)CN(CCNC(=O)CN(CCNC(=O)CN(CCNC(=O)CN(CCNC(=O)CN(CCNC(=O)CN(CCNC(=O)CN(CCNC(=O)CN(CCNC(=O)CN(CCNC(=O)CN(CCNC(=O)CN(CCNC(=O)CN(CCNC(=O)CNC(=O)[C@@H](N)CCCCN)C(=O)Cn2ccc(N)nc2=O)C(=O)Cn2ccc(N)nc2=O)C(=O)Cn2cnc3c(N)ncnc32)C(=O)Cn2cnc3c(=O)[nH]c(N)nc32)C(=O)Cn2cc(C)c(=O)[nH]c2=O)C(=O)Cn2ccc(N)nc2=O)C(=O)Cn2ccc(N)nc2=O)C(=O)Cn2cnc3c(N)ncnc32)C(=O)Cn2ccc(N)nc2=O)C(=O)Cn2cnc3c(N)ncnc32)C(=O)Cn2cnc3c(=O)[nH]c(N)nc32)C(=O)Cn2ccc(N)nc2=O)C(=O)Cn2cc(C)c(=O)[nH]c2=O)C(=O)Cn2cnc3c(=O)[nH]c(N)nc32)CC(=O)NCCN(CC(=O)NCCN(CC(=O)NCCN(CC(=O)NCCN(CC(=O)N[C@@H](CCCCN)C(=O)O)C(=O)Cn2cc(C)c(=O)[nH]c2=O)C(=O)Cn2ccc(N)nc2=O)C(=O)Cn2cnc3c(N)ncnc32)C(=O)Cn2ccc(N)nc2=O)c(=O)[nH]c1=O | Active | inactive | inactive | 3.5 | 75% | 75% | Active | Active | Active |  |  | 
6 | Cc1cn(CC(=O)N(CCNC(=O)CNC(=O)[C@@H](N)CCCCN)CC(=O)NCCN(CC(=O)NCCN(CC(=O)NCCN(CC(=O)NCCN(CC(=O)NCCN(CC(=O)NCCN(CC(=O)NCCN(CC(=O)NCCN(CC(=O)NCCN(CC(=O)NCCN(CC(=O)NCCN(CC(=O)NCCN(CC(=O)NCCN(CC(=O)NCCN(CC(=O)NCCN(CC(=O)NCCN(CC(=O)NCCN(CC(=O)NCCN(CC(=O)N[C@@H](CCCCN)C(=O)O)C(=O)Cn2ccc(N)nc2=O)C(=O)Cn2cnc3c(=O)[nH]c(N)nc32)C(=O)Cn2cnc3c(=O)[nH]c(N)nc32)C(=O)Cn2cnc3c(N)ncnc32)C(=O)Cn2cnc3c(N)ncnc32)C(=O)Cn2cnc3c(=O)[nH]c(N)nc32)C(=O)Cn2cc(C)c(=O)[nH]c2=O)C(=O)Cn2ccc(N)nc2=O)C(=O)Cn2cnc3c(=O)[nH]c(N)nc32)C(=O)Cn2cnc3c(N)ncnc32)C(=O)Cn2cnc3c(=O)[nH]c(N)nc32)C(=O)Cn2cc(C)c(=O)[nH]c2=O)C(=O)Cn2ccc(N)nc2=O)C(=O)Cn2cnc3c(N)ncnc32)C(=O)Cn2cnc3c(=O)[nH]c(N)nc32)C(=O)Cn2cc(C)c(=O)[nH]c2=O)C(=O)Cn2cnc3c(N)ncnc32)C(=O)Cn2ccc(N)nc2=O)c(=O)[nH]c1=O | Active | inactive | inactive | 6 | 75% | 75% | Active | Active | Active |  |  | 
